From patent US12624003B2, “Carboxylic acid containing indanyl compounds for the treatment of neurodegenerative diseases” (Celgene Corporation, priority 2020, dated 2026) come the findings set out here.

This assay addresses T1, S1P5 (Homo sapiens, UniProt Q9H228).
T1 construct: expressed in transfected cells; host or cells: CHO cells (membranes)
The assay can be described thus: [35S]-GTPγS functional binding assay on CHO-S1P5 membranes. The assay is classed as biochemical. To be noted: membranes of CHO cells expressing recombinant S1P5 receptors; measure of S1P5 agonism. The procedure: CHO cells expressing recombinant S1P5 receptors were cultured in 500 cm^2 culture trays and, once confluent, rinsed and detached with cell-lifting buffer (10 mM HEPES, 154 mM NaCl, 6.85 mM EDTA, pH 7.4). Cells were then pelleted by centrifugation, resuspended, and homogenized in membrane preparation buffer (10 mM HEPES and 10 mM EDTA, pH 7.4) using a Polytron PT 1200E homogenizer (Kinematica, Luzern, Switzerland). Cellular proteins were pelleted by centrifugation at 48,000×g at 4° C. for 30 minutes. The resulting supernatant was discarded, and the pellet was re-suspended again in membrane preparation buffer, homogenized for a second time, and then centrifuged again as described above. The final cellular protein pellet was suspended in ice cold resuspension buffer (10 mM HEPES and 0.1 mM EDTA, pH 7.4), divided into aliquots, and stored at −80° C. until use.
Functional binding assays for [^35S]-GTPγS were performed in 96-well non-binding surface plates with a final volume of 200 μL. The test compounds were serially diluted in DMSO and added to assay plates using a Tecan D300E digital printer with a total volume of 0.4 μL. The control sphingosine-1-phosphate (S1P) was prepared separately by preparing a 400 μM stock solution from a 100 nmol pellet of SIP in 10 mM Na2CO3 with 2% s-cyclodextrin. The serial dilution of S1P was done using complete assay buffer (20 mM HEPES, 10 mM MgCl2, 100 mM NaCl, 1 mM EDTA, 0.1% fatty acid free bovine serum albumin (BSA), and 30 μg/mL saponin, pH 7.4) and transferred to wells already containing 0.4 μL DMSO. All the wells were then loaded to a total volume of 40 μL of complete assay buffer, except the non-specific binding (NSB) wells. For NSB wells, 40 μL/well of 50 μM GTPγS (Sigma Aldrich, cat #G8634, St. Louis, MO) was added to wells containing 0.4 μL of DMSO. The assay was started by the addition of 120 μL/well of CHO-S1P receptor membrane solution containing 40 μg/mL of membrane protein, 16.67 μM guanosine diphosphate (GDP; Sigma Aldrich, cat #G7127, St. Louis, MO), and 2.5 mg/mL of WGA PVT SPA beads in complete buffer. Assay plates were then sealed and incubated at room temperature with gentle agitation for 30 minutes. Next, 40 μL/well of 1 nM of [^35S]-GTPγS (PerkinElmer, cat #NEG030X250UC, Waltham, MA) in basic assay buffer (20 mM HEPES, 10 mM MgCl2, 100 mM NaCl, and 1 mM EDTA, pH 7.4) was added to the assay plates to yield a final concentration of […] and the plates were further incubated for 40 minutes at room temperature with gentle agitation. The assay was terminated by centrifugation of the plates at 1000 rpm for 3 minutes using an Eppendorf 5810R centrifuge (Eppendorf, Hamburg, Germany) and G protein bound radioactivity was quantitated using a MicroBeta2 microplate scintillation counter (PerkinElmer, Waltham, MA). As G protein bound radioactivity directly correlates to receptor activation and coupling to the G protein, this assay is a measure of S1P5 agonism.

T1 sequence (Q9H228 whole entry, species assumed): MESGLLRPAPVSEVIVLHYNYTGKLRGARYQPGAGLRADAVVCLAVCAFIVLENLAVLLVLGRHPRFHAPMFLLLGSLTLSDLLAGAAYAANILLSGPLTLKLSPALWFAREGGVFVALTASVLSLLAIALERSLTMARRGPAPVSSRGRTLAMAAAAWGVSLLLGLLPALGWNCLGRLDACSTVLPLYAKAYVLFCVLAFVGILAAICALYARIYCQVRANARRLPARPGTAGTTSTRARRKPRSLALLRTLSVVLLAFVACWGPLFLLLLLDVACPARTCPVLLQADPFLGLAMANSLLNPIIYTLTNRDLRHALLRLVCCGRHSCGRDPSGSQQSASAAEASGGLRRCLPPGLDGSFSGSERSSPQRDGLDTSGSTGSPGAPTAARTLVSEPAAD

As for `O=C(O)C1(F)CCN(C2CCc3cc(C#Cc4c(Cl)cccc4Cl)ccc32)CC1` (single isomer, unassigned) [Compound 3a, 1-(5-((2,6-dichlorophenyl)ethynyl)-2,3-dihydro-1H-inden-1-yl)-4-fluoropiperidine-4-carboxylic acid], the EC50 is no more than 10 nM.

For `O=C(O)C1(F)CCN(C2CCc3cc(C#Cc4c(Cl)cccc4Cl)ccc32)CC1` (single isomer, unassigned) [Compound 3b, 1-(5-((2,6-dichlorophenyl)ethynyl)-2,3-dihydro-1H-inden-1-yl)-4-fluoropiperidine-4-carboxylic acid], the concentration for a half-maximal effect (EC50) is no more than 10 nM.

On to `O=C(O)C1CCN(C2CCc3cc(C#Cc4cccc(F)c4)ccc32)CC1` (single isomer, unassigned) [Compound 4a, 1-(5-((3-fluorophenyl)ethynyl)-2,3-dihydro-1H-inden-1-yl)piperidine-4-carboxylic acid], for which the 50% effective concentration (EC50) was 100 to 1000 nM.

With `O=C(O)C1CCN(C2CCc3cc(C#Cc4cccc(F)c4)ccc32)CC1` (single isomer, unassigned) [Compound 4b, 1-(5-((3-fluorophenyl)ethynyl)-2,3-dihydro-1H-inden-1-yl)piperidine-4-carboxylic acid], the EC50 was no more than 10 nM.

On to `O=C(O)C1CCN(C2CCc3cc(C#Cc4ccccc4F)ccc32)CC1` (single isomer, unassigned) [Compound 6a, 1-(5-((2-fluorophenyl)ethynyl)-2,3-dihydro-1H-inden-1-yl)piperidine-4-carboxylic acid], for which the 50% effective concentration (EC50) was in the range of 10 to 100 nM.

As for `O=C(O)C1CCN(C2CCc3cc(C#Cc4ccccc4F)ccc32)CC1` (single isomer, unassigned) [Compound 6b, 1-(5-((2-fluorophenyl)ethynyl)-2,3-dihydro-1H-inden-1-yl)piperidine-4-carboxylic acid], the concentration giving a half-maximal response (EC50) was no more than 10 nM.

On to `O=C(O)[C@@H]1CCCN(C2CCc3cc(C#Cc4cccc(F)c4)ccc32)C1` (single isomer, unassigned) [Compound 7a], for which the concentration giving a half-maximal response (EC50) lay within 10 to 100 nM.

In the case of `O=C(O)[C@@H]1CCCN(C2CCc3cc(C#Cc4cccc(F)c4)ccc32)C1` (single isomer, unassigned) [Compound 7b], the 50% effective concentration (EC50) was in the range of 100 to 1000 nM.

As for `O=C(O)[C@@H]1CCCCN1C1CCc2cc(C#Cc3cccc(F)c3)ccc21` (single isomer, unassigned) [Compound 8a], the EC50 is 100 to 1000 nM.

On to `O=C(O)[C@@H]1CCCCN1C1CCc2cc(C#Cc3cccc(F)c3)ccc21` (single isomer, unassigned) [Compound 8b], for which the EC50 fell in the range of 1000 to 10000 nM.

Consider `O=C(O)[C@H]1CCCCN1C1CCc2cc(C#Cc3cccc(F)c3)ccc21` (single isomer, unassigned) [Compound 9a], for which the EC50 lay in the range of 1000 to 10000 nM.

As to `O=C(O)[C@H]1CCCCN1C1CCc2cc(C#Cc3cccc(F)c3)ccc21` (single isomer, unassigned) [Compound 9b], the EC50 lay within 1000 to 10000 nM.

As to `O=C(O)[C@H]1CCN(C2CCc3cc(C#Cc4cccc(F)c4)ccc32)C1` (single isomer, unassigned) [Compound 13a], the EC50 was 10 to 100 nM.

Consider `O=C(O)[C@H]1CCN(C2CCc3cc(C#Cc4cccc(F)c4)ccc32)C1` (single isomer, unassigned) [Compound 13b], for which the 50% effective concentration (EC50) lay in the range of 10 to 100 nM.

For the compound `O=C(O)[C@@H]1CCN(C2CCc3cc(C#Cc4cccc(F)c4)ccc32)C1` (single isomer, unassigned) [Compound 14a], the EC50 was no more than 10 nM.

In the case of `O=C(O)[C@@H]1CCN(C2CCc3cc(C#Cc4cccc(F)c4)ccc32)C1` (single isomer, unassigned) [Compound 14b], the EC50 is no more than 10 nM.

On to `O=C(O)C1CN(C2CCc3cc(C#Cc4c(Cl)cccc4Cl)ccc32)C1` (single isomer, unassigned) [Compound 18, 1-(5-((2,6-dichlorophenyl)ethynyl)-2,3-dihydro-1H-inden-1-yl)azetidine-3-carboxylic acid], for which the concentration giving a half-maximal response (EC50) is no more than 10 nM.

Take `O=C(O)C1CN(C2CCc3cc(C#Cc4cccc(F)c4)ccc32)C1` (single isomer, unassigned) [Compound 19, 1-(5-((3-fluorophenyl)ethynyl)-2,3-dihydro-1H-inden-1-yl)azetidine-3-carboxylic acid]: the EC50 was no more than 10 nM.

Regarding `O=C(O)C1CN(C2CCc3cc(C#Cc4cc(F)ccc4F)ccc32)C1` (single isomer, unassigned) [Compound 20, 1-(5-((2,5-difluorophenyl)ethynyl)-2,3-dihydro-1H-inden-1-yl)azetidine-3-carboxylic acid], the EC50 is no more than 10 nM.

Regarding `O=C(O)C1CCN(C2CCc3cc(CCc4c(Cl)cccc4Cl)ccc32)CC1` (single isomer, unassigned) [Compound 22a, 1-(5-(2,6-dichlorophenethyl)-2,3-dihydro-1H-inden-1-yl)piperidine-4-carboxylic acid], the concentration for a half-maximal effect (EC50) was no more than 10 nM.

As to `O=C(O)C1CCN(C2CCc3cc(CCc4c(Cl)cccc4Cl)ccc32)CC1` (single isomer, unassigned) [Compound 22b, 1-(5-(2,6-dichlorophenethyl)-2,3-dihydro-1H-inden-1-yl)piperidine-4-carboxylic acid], the concentration giving a half-maximal response (EC50) was no more than 10 nM.

Take `O=C(Cc1c(Cl)cccc1Cl)c1ccc2c(c1)CCC2N1CCC(C(=O)O)CC1` (single isomer, unassigned) [Compound 23, 1-(5-(2-(2,6-dichlorophenyl)acetyl)-2,3-dihydro-1H-inden-1-yl)piperidine-4-carboxylic acid]: the EC50 is 10 to 100 nM.

As to `O=C(Cc1ccc2c(c1)CCC2N1CCC(C(=O)O)CC1)c1c(Cl)cccc1Cl` (single isomer, unassigned) [Compound 24, 1-(5-(2-(2,6-dichlorophenyl)-2-oxoethyl)-2,3-dihydro-1H-inden-1-yl)piperidine-4-carboxylic acid], the EC50 lay within 10 to 100 nM.

With `O=C(O)C1CCN(C2CCc3cc(CCc4ccccc4Cl)ccc32)CC1` (single isomer, unassigned) [Compound 25a, 1-(5-(2-chlorophenethyl)-2,3-dihydro-1H-inden-1-yl)piperidine-4-carboxylic acid], the EC50 was in the range of 10 to 100 nM.

As for `O=C(O)C1CCN(C2CCc3cc(CCc4ccccc4Cl)ccc32)CC1` (single isomer, unassigned) [Compound 25b, 1-(5-(2-chlorophenethyl)-2,3-dihydro-1H-inden-1-yl)piperidine-4-carboxylic acid], the half-maximal effective concentration (EC50) was 100 to 1000 nM.

Consider `O=C(O)C1CCN(C2CCc3cc(CCc4cccc(F)c4)ccc32)CC1` (single isomer, unassigned) [Compound 26a, 1-(5-(3-fluorophenethyl)-2,3-dihydro-1H-inden-1-yl)piperidine-4-carboxylic acid], for which the half-maximal effective concentration (EC50) lay within 100 to 1000 nM.

In the case of `O=C(O)C1CCN(C2CCc3cc(CCc4cccc(F)c4)ccc32)CC1` (single isomer, unassigned) [Compound 26b, 1-(5-(3-fluorophenethyl)-2,3-dihydro-1H-inden-1-yl)piperidine-4-carboxylic acid], the EC50 lay in the range of 10 to 100 nM.

In the case of `O=C(O)C1CCN(C2CCc3cc(CCc4cccc(Cl)c4)ccc32)CC1` (single isomer, unassigned) [Compound 27a, 1-(5-(3-chlorophenethyl)-2,3-dihydro-1H-inden-1-yl)piperidine-4-carboxylic acid], the EC50 is no more than 10 nM.

`O=C(O)C1CCN(C2CCc3cc(CCc4cccc(Cl)c4)ccc32)CC1` (single isomer, unassigned) [Compound 27b, 1-(5-(3-chlorophenethyl)-2,3-dihydro-1H-inden-1-yl)piperidine-4-carboxylic acid]: the EC50 was in the range of 100 to 1000 nM.

In the case of `O=C(O)C1CCN(C2CCc3cc(CCc4c(F)cccc4F)ccc32)CC1` (single isomer, unassigned) [Compound 28a, 1-(5-(2,6-difluorophenethyl)-2,3-dihydro-1H-inden-1-yl)piperidine-4-carboxylic acid], the 50% effective concentration (EC50) was in the range of 100 to 1000 nM.

The term EC50 denotes the midpoint of the concentration-response curve.
